37 molecules from BindingDB's records for patent US20240182487 (Blossomhill Therapeutics, 2024) can be followed below.

Common to all, as to assay: Biochemical Assay
Assay [1] concerns the target Epidermal growth factor receptor [T790M,L858R] (Homo sapiens, UniProt P00533, L858R/T790M). The method, then: (§1) Biochemical Assays for Inhibition of Wild-Type and Mutant EGFRs.The inhibitory activities against EGFR WT, EGFR Δ752-759 mutant, EGFR Δ746-750/T790M mutant, EGFR Δ746-750/C797S mutant, EGFR Δ746-750/T790M/C797S mutant. […] Briefly, specific kinase/substrate pairs along with required cofactors were prepared in reaction buffer; 20 mM Hepes pH 7.5, 10 mM MgCl2, 1 mM EGTA, 0.02% Brij35, 0.02 mg/ml BSA, 0.1 mM Na3VO4, 2 mM DTT, 1% DMSO. Compounds were delivered into the reaction, followed 20 minutes later by addition of a mixture of ATP (Sigma, St. Louis MO) and 33P ATP (Perkin Elmer, Waltham MA) to a final concentration of 10 μM. Reactions were carried out at room temperature for 120 min, followed by spotting of the reactions onto P81 ion exchange filter paper (Whatman Inc., Piscataway, NJ). Unbound phosphate was removed by extensive washing of filters in 0.75% phosphoric acid.

Assay [2] has as its target Epidermal growth factor receptor [L858R,T790M,C797S] (Homo sapiens, UniProt P00533, C797S/L858R/T790M). The method, then: as §1
The target in assay [3] is Epidermal growth factor receptor [L858R,C797S] (Human, UniProt P00533, C797S/L858R). The method, then: as §1
For assay [4], the target named is Epidermal growth factor receptor (Homo sapiens, UniProt P00533). The method, then:
as §1

The target of assay [5] is Epidermal growth factor receptor [L858R] (Homo sapiens, UniProt P00533, L858R). The method, then: as §1

One may read the IC50 as the concentration that gives 50% inhibition.

Sequence of Epidermal growth factor receptor [L858R] (P00533 25-1210 L858R limits assumed): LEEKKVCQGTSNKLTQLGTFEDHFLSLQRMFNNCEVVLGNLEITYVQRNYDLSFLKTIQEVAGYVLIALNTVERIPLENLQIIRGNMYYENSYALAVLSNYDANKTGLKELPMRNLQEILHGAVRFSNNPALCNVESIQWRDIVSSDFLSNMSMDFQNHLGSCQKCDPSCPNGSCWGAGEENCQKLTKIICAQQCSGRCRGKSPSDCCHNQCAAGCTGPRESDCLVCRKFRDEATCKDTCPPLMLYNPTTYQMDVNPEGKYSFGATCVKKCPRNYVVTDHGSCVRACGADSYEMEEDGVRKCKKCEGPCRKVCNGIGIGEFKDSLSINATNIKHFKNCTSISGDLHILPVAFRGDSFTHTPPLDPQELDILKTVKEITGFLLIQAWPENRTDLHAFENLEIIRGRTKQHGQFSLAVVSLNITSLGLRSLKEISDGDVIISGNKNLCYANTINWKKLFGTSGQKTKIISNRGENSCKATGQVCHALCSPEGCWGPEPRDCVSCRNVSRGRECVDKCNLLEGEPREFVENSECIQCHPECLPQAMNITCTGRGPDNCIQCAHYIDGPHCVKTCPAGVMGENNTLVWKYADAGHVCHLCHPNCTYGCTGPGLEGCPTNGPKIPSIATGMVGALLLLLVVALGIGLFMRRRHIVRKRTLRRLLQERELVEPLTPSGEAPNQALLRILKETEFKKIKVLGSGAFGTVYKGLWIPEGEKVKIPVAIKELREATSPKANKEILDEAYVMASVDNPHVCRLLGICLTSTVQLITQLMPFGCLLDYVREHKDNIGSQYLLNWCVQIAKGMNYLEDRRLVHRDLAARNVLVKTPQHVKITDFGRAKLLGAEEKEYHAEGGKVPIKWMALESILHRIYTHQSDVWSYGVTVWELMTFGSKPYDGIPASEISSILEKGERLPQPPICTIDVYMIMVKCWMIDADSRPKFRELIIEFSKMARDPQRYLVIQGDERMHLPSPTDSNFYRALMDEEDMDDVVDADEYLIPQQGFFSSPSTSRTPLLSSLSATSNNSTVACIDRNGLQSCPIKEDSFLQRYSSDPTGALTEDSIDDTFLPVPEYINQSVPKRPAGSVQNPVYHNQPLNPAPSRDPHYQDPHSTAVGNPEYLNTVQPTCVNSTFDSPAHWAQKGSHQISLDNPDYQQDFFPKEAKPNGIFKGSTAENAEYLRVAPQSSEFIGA
Sequence of Epidermal growth factor receptor [T790M,L858R] (P00533 25-1210 T790M/L858R limits assumed): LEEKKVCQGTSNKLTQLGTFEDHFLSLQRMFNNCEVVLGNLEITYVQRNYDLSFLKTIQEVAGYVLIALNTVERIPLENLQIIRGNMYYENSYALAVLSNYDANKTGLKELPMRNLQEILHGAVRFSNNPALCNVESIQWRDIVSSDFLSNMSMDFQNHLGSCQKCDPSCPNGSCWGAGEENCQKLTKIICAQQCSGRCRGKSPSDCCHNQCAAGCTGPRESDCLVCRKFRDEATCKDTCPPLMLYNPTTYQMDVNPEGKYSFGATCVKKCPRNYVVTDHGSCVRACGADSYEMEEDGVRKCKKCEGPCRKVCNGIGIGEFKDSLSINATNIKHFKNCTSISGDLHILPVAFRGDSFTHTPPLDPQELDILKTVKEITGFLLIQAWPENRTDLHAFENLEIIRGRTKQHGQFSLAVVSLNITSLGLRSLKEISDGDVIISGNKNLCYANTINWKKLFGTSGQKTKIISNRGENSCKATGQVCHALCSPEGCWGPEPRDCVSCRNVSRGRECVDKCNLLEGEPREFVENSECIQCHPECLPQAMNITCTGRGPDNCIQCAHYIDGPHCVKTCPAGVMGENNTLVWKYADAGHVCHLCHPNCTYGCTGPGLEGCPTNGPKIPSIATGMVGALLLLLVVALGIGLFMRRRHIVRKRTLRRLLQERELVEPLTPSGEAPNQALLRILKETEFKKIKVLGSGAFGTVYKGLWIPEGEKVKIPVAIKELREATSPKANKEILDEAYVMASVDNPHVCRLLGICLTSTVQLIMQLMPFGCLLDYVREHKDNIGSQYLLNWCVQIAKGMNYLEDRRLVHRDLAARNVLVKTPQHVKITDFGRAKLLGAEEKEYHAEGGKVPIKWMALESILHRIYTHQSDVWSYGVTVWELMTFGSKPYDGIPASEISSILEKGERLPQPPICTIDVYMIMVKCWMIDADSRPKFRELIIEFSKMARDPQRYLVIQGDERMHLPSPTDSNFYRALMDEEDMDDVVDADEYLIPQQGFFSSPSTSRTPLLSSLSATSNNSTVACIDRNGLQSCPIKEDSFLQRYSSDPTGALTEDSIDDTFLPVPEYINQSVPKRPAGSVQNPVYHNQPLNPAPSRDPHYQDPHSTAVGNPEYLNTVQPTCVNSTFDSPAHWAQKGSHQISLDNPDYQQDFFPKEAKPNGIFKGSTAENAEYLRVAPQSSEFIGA
Sequence of Epidermal growth factor receptor [L858R,T790M,C797S] (P00533 25-1210 T790M/C797S/L858R limits assumed): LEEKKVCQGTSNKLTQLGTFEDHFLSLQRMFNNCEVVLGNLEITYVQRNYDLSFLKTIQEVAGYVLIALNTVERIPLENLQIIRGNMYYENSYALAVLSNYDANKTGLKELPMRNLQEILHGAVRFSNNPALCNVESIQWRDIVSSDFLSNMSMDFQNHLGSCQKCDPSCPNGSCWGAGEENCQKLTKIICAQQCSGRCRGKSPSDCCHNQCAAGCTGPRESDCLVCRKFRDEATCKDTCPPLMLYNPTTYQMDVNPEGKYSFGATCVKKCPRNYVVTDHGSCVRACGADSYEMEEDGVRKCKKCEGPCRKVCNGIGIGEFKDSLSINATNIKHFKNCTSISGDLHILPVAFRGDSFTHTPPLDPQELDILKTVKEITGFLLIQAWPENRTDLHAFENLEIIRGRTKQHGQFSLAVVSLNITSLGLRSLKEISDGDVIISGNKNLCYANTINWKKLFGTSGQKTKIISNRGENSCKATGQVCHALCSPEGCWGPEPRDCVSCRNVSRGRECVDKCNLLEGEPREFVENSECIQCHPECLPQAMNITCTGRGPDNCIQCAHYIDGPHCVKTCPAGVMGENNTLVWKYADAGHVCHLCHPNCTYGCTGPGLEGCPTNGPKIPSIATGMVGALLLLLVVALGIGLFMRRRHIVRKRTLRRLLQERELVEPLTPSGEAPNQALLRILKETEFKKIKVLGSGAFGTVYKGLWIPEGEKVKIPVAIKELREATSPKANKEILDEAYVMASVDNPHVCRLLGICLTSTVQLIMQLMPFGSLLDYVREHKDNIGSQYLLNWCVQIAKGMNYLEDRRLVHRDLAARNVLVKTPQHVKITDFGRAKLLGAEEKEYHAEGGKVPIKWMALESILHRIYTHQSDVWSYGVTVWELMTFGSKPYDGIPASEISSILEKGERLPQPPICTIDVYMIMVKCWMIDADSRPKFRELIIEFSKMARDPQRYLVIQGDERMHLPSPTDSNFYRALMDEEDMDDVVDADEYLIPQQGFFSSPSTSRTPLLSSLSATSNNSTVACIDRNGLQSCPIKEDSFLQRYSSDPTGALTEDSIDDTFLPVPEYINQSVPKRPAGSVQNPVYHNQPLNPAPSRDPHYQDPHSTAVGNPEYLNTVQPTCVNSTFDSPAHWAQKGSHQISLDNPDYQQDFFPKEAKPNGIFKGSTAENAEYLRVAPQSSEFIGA
Sequence of Epidermal growth factor receptor (P00533 whole entry): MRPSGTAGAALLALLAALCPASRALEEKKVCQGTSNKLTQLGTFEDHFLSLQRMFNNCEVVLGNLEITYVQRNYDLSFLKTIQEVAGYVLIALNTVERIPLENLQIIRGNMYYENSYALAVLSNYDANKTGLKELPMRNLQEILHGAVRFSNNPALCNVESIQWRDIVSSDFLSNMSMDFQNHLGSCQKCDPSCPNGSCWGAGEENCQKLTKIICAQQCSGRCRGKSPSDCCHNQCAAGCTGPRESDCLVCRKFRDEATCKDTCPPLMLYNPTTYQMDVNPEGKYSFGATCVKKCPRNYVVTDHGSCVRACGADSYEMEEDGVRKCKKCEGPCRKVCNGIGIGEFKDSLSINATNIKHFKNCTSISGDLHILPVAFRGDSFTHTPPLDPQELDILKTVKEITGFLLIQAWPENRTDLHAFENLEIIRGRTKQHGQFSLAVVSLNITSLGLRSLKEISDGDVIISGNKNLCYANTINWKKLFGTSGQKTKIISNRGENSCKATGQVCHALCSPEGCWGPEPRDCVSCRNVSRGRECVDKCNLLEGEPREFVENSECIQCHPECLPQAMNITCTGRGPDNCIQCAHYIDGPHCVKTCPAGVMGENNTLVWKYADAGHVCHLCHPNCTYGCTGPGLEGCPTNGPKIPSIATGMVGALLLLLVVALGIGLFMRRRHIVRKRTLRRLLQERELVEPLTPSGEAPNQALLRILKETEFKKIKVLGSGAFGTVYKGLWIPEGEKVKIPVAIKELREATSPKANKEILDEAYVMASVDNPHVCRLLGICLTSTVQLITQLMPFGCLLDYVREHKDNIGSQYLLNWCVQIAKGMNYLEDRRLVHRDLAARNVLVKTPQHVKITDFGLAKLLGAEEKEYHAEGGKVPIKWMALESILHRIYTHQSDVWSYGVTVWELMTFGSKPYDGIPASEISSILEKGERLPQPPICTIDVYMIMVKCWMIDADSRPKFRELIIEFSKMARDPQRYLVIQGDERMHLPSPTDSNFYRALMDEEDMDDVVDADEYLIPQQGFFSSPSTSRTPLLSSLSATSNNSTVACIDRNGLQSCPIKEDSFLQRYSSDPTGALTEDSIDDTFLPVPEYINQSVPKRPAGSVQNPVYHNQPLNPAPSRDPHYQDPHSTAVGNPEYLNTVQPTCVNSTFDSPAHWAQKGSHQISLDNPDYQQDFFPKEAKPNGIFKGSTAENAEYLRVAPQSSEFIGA

In the case of `Cn1ncc2c1COCCOc1ccccc1/C=C/c1n[nH]c3cnc-2nc13` [US20240182487, Compound 16], the IC50 in assay [1] was determined as 168 nM; in assay [2], 263 nM; in assay [3], 481 nM; in assay [4], 551 nM; in assay [5], 350 nM.

As for `CCc1c2c(nn1C)C(=O)N(C)CCOc1c[nH]c(=O)cc1-c1cc3c(n[nH]c3cn1)/C=C/2` [US20240182487, Compound 38], 1130 nM corresponded to half-maximal inhibition in assay [2] (IC50).

On to `CCc1nn(C)c2c1/C=C/c1n[nH]c3cnc(cc13)-c1cc(F)ccc1OCCN(C)C2=O` [US20240182487, Compound 62], for which the IC50 in assay [1] is 36.3 nM; in assay [2], 32.4 nM; in assay [3], 104 nM; in assay [4] it was 306 nM; in assay [5], 136 nM.

Regarding `Cn1ncc2c1COCCOc1ccccc1/C=C/c1n[nH]c3cnc-2cc13` [US20240182487, Compound 63], the IC50 in assay [1] was 5.8 nM; in assay [2] it was 8.8 nM; in assay [3] it was 61.9 nM; in assay [4], 98.4 nM; in assay [5] it was 50 nM.

With `CCc1c2c(nn1C)C(=O)N(C)CCCOc1cnc(OC)cc1-c1cc3c(n[nH]c3cn1)/C=C/2` [US20240182487, Compound 64], the IC50 in assay [5] was more than 10000 nM.

As for `Cc1ccc2c(n1)/C=C/c1n[nH]c3cnc(nc13)-c1cnn(C)c1C(C)OCCO2` (configuration not stated) [US20240182487, Compound 65], the IC50 in assay [1] amounted to 23.4 nM; in assay [2], 91.2 nM; in assay [4], 438 nM; in assay [5] it was 140 nM.

In assay [5], `CCc1c2c(nn1C)C(=O)N(C)CCOc1cnc(OC)cc1-c1cc3c(n[nH]c3cn1)/C=C/2` [US20240182487, Compound 66] yielded an IC50 of more than 10000 nM.

In the case of `COC(=O)c1ccc2c(c1)OCCCOc1c(cnn1C)-c1cc3c(n[nH]c3cn1)/C=C/2` [US20240182487, Compound 67], the IC50 was found to be 112 nM in assay [2], 1000 nM in assay [4] and 1720 nM in assay [5].

As for `COC(=O)c1ccc2c(c1)/C=C/c1n[nH]c3cnc(cc13)-c1cnn(C)c1OCCCO2` [US20240182487, Compound 68], the IC50 in assay [2] was 16.6 nM; in assay [4] it was 159 nM.

In assay [2], `COC(=O)c1ccc2c(c1)OCCOCc1c(cnn1C)-c1cc3c(n[nH]c3cn1)/C=C/2` [US20240182487, Compound 69] showed an IC50 of 98.3 nM. In other words, the double-digit nanomolar range.

For the molecule `CN(C)CCCNC(=O)c1ccc2c(c1)/C=C/c1n[nH]c3cnc(cc13)-c1cnn(C)c1OCCCO2` [US20240182487, Compound 70], the IC50 in assay [2] turned out to be 5.3 nM; in assay [4], 5.9 nM; in assay [5] it was 2.2 nM.

`Cn1ncc2c1OCCCOc1ccc(C(=O)N3CCCC3)cc1/C=C/c1n[nH]c3cnc-2cc13` [US20240182487, Compound 72]: the values for the IC50 in assay [2], in assay [4] and in assay [5] were 64.7 nM, 48.7 nM and 23.7 nM, respectively.

With `Cn1ncc2c1OCCCOc1cc(C(=O)O)ccc1/C=C/c1n[nH]c3cnc-2cc13` [US20240182487, Compound 73], the IC50 in assay [2] was found to be 220 nM; in assay [4] it was 88.6 nM; in assay [5], 39 nM.

Take `CN(C)CCNC(=O)c1ccc2c(c1)OCCCOc1c(cnn1C)-c1cc3c(n[nH]c3cn1)/C=C/2` [US20240182487, Compound 74]: the IC50 in assay [2] was found to be 8.3 nM; in assay [4], 5.7 nM; in assay [5] it was 2.8 nM.

For `COC(=O)c1ccc2c(c1)/C=C/c1n[nH]c3cnc(cc13)-c1cnn(C)c1COCCO2` [US20240182487, Compound 75], the IC50 was found to be 184 nM in assay [2], 938 nM in assay [4] and 165 nM in assay [5].

In the case of `CN1CCC(CNC(=O)c2ccc3c(c2)/C=C/c2n[nH]c4cnc(cc24)-c2cnn(C)c2OCCCO3)CC1` [US20240182487, Compound 76], the IC50 in assay [2] stood at 3.1 nM; in assay [5], 1.2 nM.

Turning to `CC(C)NC(=O)c1ccc2c(c1)OCCCOc1c(cnn1C)-c1cc3c(n[nH]c3cn1)/C=C/2` [US20240182487, Compound 77], the IC50 came to 172 nM in assay [2] and 57.9 nM in assay [5].

In the case of `CN1CCC(NC(=O)c2ccc3c(c2)OCCCOc2c(cnn2C)-c2cc4c(n[nH]c4cn2)/C=C/3)CC1` [US20240182487, Compound 78], the IC50 in assay [2] is 10.6 nM; in assay [4] it was 6.2 nM; in assay [5] it was 2.9 nM.

As for `CN1CC[C@@H](NC(=O)c2ccc3c(c2)OCCCOc2c(cnn2C)-c2cc4c(n[nH]c4cn2)/C=C/3)C1` [US20240182487, Compound 82], the IC50 in assay [2] worked out at 12 nM; in assay [4] it was 9.8 nM; in assay [5], 5.4 nM.

As to `CN1CC(NC(=O)c2ccc3c(c2)OCCCOc2c(cnn2C)-c2cc4c(n[nH]c4cn2)/C=C/3)C1` [US20240182487, Compound 83], the IC50 in assay [2] is 13.8 nM; in assay [4], 11.2 nM; in assay [5], 6 nM.

Regarding `CCNC(=O)c1ccc2c(c1)OCCOCc1c(cnn1C)-c1cc3c(n[nH]c3cn1)/C=C/2` [US20240182487, Compound 84], the IC50 stood at 160 nM in assay [2], 884 nM in assay [4] and 433 nM in assay [5].

As for `CN1CCC(NC(=O)c2ccc3c(c2)OCCOCc2c(cnn2C)-c2cc4c(n[nH]c4cn2)/C=C/3)CC1` [US20240182487, Compound 85], the half-maximal inhibitory concentration (IC50) in assay [2] is 31 nM; in assay [4], 140 nM; in assay [5], 40.7 nM.

Regarding `CNC(=O)c1ccc2c(c1)/C=C/c1n[nH]c3cnc(cc13)-c1cnn(C)c1OCCCO2` [US20240182487, Compound 86], the IC50 in assay [2] came out at 8.8 nM; in assay [4], 24.1 nM; in assay [5], 4.9 nM.

Consider `CN1CC[C@@H](NC(=O)c2ccc3c(c2)OCCOCc2c(cnn2C)-c2cc4c(n[nH]c4cn2)/C=C/3)C1` [US20240182487, Compound 87], for which the IC50 in assay [2] was 17.2 nM; in assay [4], 80.1 nM; in assay [5] it was 16.3 nM.

Regarding `CN1CC[C@H](NC(=O)c2ccc3c(c2)OCCCOc2c(cnn2C)-c2cc4c(n[nH]c4cn2)/C=C/3)C1` [US20240182487, Compound 88], the results for the IC50 in assay [2], in assay [4] and in assay [5] were 10.3 nM, 19.3 nM and 4.1 nM, respectively.

For `CCNC(=O)c1ccc2c(c1)/C=C/c1n[nH]c3cnc(cc13)-c1cnn(C)c1COCCO2` [US20240182487, Compound 89], the IC50 in assay [4] amounted to 158 nM; in assay [5], 32 nM.

Take `CN(C)CCNC(=O)c1ccc2c(c1)/C=C/c1n[nH]c3cnc(cc13)-c1cnn(C)c1COCCO2` [US20240182487, Compound 90]: the IC50 in assay [2] was found to be 8.6 nM; in assay [4] it was 73.7 nM; in assay [5] it was 22.2 nM.

Take `CN(C)CCCNC(=O)c1ccc2c(c1)/C=C/c1n[nH]c3cnc(cc13)-c1cnn(C)c1COCCO2` [US20240182487, Compound 91]: the figures for the IC50 in assay [2], in assay [4] and in assay [5] were 10.2 nM, 97.2 nM and 28.2 nM, respectively.

For `Cn1ncc2c1COCCOc1ccc(C(=O)O)cc1/C=C/c1n[nH]c3cnc-2cc13` [US20240182487, Compound 92], the IC50 in assay [2] worked out at 55.5 nM; in assay [4], 271 nM; in assay [5] it was 66.4 nM.

On to `CN1CCC(NC(=O)c2ccc3c(c2)/C=C/c2n[nH]c4cnc(cc24)-c2cnn(C)c2COCCO3)CC1` [US20240182487, Compound 93], for which the results for the IC50 in assay [2], in assay [4] and in assay [5] were 4.2 nM, 55.8 nM and 7.2 nM, respectively.

With `CN1CCC(CNC(=O)c2ccc3c(c2)/C=C/c2n[nH]c4cnc(cc24)-c2cnn(C)c2COCCO3)CC1` [US20240182487, Compound 94], the IC50 was determined as 9.9 nM in assay [2], 101 nM in assay [4] and 9.2 nM in assay [5].

For `Cc1ccc2c(n1)/C=C/c1n[nH]c3cnc(cc13)-c1cnn(C)c1C(C)OCCO2` (configuration not stated) [US20240182487, Compound 95], the figures for the IC50 in assay [2], in assay [4] and in assay [5] were 35 nM, 91.6 nM and 74.9 nM, respectively.

As for `CN1CCN(C(=O)c2ccc3c(c2)/C=C/c2n[nH]c4cnc(cc24)-c2cnn(C)c2COCCO3)CC1` [US20240182487, Compound 96], the IC50 in assay [2] turned out to be 343 nM; in assay [4], 586 nM; in assay [5], 470 nM.

Take `CN1CCC(NC(=O)c2ccc3c(c2)/C=C/c2n[nH]c4cnc(cc24)-c2cnn(C)c2OCCCO3)CC1` [US20240182487, Compound 97]: the IC50 in assay [2] came out at 3.4 nM; in assay [4], 3.1 nM; in assay [5], 4.5 nM.

With `Cc1nc2cc3c(n[nH]c13)/C=C/c1cc(F)ccc1OCCCOc1c-2cnn1C` [US20240182487, Compound 98], the IC50 in assay [2] was found to be 192 nM; in assay [4] it was 1240 nM; in assay [5] it was 1110 nM.

For the molecule `CN1CCOCCN(c2ccc(F)c(Cl)c2)c2cc3c(n[nH]c3cn2)/C=C/c2cn(C)nc2C1=O` [US20240182487, Compound 99], the half-inhibitory concentration (IC50) in assay [1] was more than 10000 nM; in assay [3], 50.2 nM; in assay [4], 33.5 nM; in assay [5] it was 25.5 nM.

For the molecule `Cn1ncc2c1OCCCOc1ccc(F)cc1/C=C/c1n[nH]c3cnc-2cc13` [US20240182487, Compound 100], the IC50 in assay [2] is 27.5 nM; in assay [4], 176 nM; in assay [5], 13.9 nM.
